Test system: 475296-252-R-J1-PDC spheroid viability
Assay: Anticancer human tumor 475296-252-R-J1-PDC patient-derived rectal carcinoma cell line growth inhibition [PI3K]
Details: spheroids with HUVEC and MSC; for IC50: curve of first compound; for viability, T/C: stronger effect = lower value
How it was run: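 High-throughput combination screen: PI3K inhibitors crossed with targeted small molecules on complex spheroids of tumor cells, HUVEC and MSCs at 37 degrees C, 5% CO2. Top concentration was at or near clinical Cmax (otherwise 10 microM), with half-log decrements.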

[1] = second compound 0.00316 µM, first compound 0.0316 µM
[2] = second compound 0.00316 µM, first compound 0.1 µM
[3] = second compound 0.00316 µM, first compound 0.316 µM
[4] = second compound 0.00316 µM, first compound 1 µM
[5] = second compound 0.00316 µM, first compound 3.16 µM
[6] = second compound 0.00316 µM, first compound 10 µM
[7] = second compound 0.01 µM, first compound 0.0316 µM
[8] = second compound 0.01 µM, first compound 0.1 µM
[9] = second compound 0.01 µM, first compound 0.316 µM
[10] = second compound 0.01 µM, first compound 1 µM
[11] = second compound 0.01 µM, first compound 3.16 µM
[12] = second compound 0.01 µM, first compound 10 µM
[13] = second compound 0.0316 µM, first compound 0.0316 µM
[14] = second compound 0.0316 µM, first compound 0.1 µM
[15] = second compound 0.0316 µM, first compound 0.316 µM
[16] = second compound 0.0316 µM, first compound 1 µM
[17] = second compound 0.0316 µM, first compound 3.16 µM
[18] = second compound 0.0316 µM, first compound 10 µM
[19] = second compound 0.1 µM, first compound 0.0316 µM
[20] = second compound 0.1 µM, first compound 0.1 µM
[21] = second compound 0.1 µM, first compound 0.316 µM
[22] = second compound 0.1 µM, first compound 1 µM
[23] = second compound 0.1 µM, first compound 3.16 µM
[24] = second compound 0.1 µM, first compound 10 µM
[25] = second compound 0.316 µM, first compound 0.0316 µM
[26] = second compound 0.316 µM, first compound 0.1 µM
[27] = second compound 0.316 µM, first compound 0.316 µM
[28] = second compound 0.316 µM, first compound 1 µM
[29] = second compound 0.316 µM, first compound 3.16 µM
[30] = second compound 0.316 µM, first compound 10 µM
[31] = second compound 1 µM, first compound 0.0316 µM
[32] = second compound 1 µM, first compound 0.1 µM
[33] = second compound 1 µM, first compound 0.316 µM
[34] = second compound 1 µM, first compound 1 µM
[35] = second compound 1 µM, first compound 3.16 µM
[36] = second compound 1 µM, first compound 10 µM
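Further: spheroids exposed to agents for seven days before readout.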

CC1(C)CCC(CN2CCN(c3ccc(C(=O)NS(=O)(=O)c4ccc(NCC5CCOCC5)c([N+](=O)[O-])c4)c(Oc4cnc5[nH]ccc5c4)c3)CC2)=C(c2ccc(Cl)cc2)C1 + COc1c(OCCCN2CCOCC2)ccc2c3n(c(=NC(=O)c4cnc(N)nc4)nc12)CCN3
IC50 (second compound 0.00316 µM): > 10 µM
IC50 (second compound 0.01 µM): > 10 µM
IC50 (second compound 0.0316 µM): > 10 µM
IC50 (second compound 0.1 µM): > 10 µM
IC50 (second compound 0.316 µM): > 10 µM
IC50 (second compound 1 µM): 5.62 µM
viability, T/C [1]: 107%
viability, T/C [2]: 85.6%
viability, T/C [3]: 111%
viability, T/C [4]: 86.3%
viability, T/C [5]: 105%
viability, T/C [6]: 68.7%
viability, T/C [7]: 96.2%
viability, T/C [8]: 97.9%
viability, T/C [9]: 87.5%
viability, T/C [10]: 104%
viability, T/C [11]: 86%
viability, T/C [12]: 67.3%
viability, T/C [13]: 98.6%
viability, T/C [14]: 85.8%
viability, T/C [15]: 82.5%
viability, T/C [16]: 93.5%
viability, T/C [17]: 79.8%
viability, T/C [18]: 64%
viability, T/C [19]: 91.8%
viability, T/C [20]: 80.7%
viability, T/C [21]: 78%
viability, T/C [22]: 85%
viability, T/C [23]: 70.6%
viability, T/C [24]: 66.7%
viability, T/C [25]: 67%
viability, T/C [26]: 72.3%
viability, T/C [27]: 63.7%
viability, T/C [28]: 62%
viability, T/C [29]: 66.8%
viability, T/C [30]: 59.4%
viability, T/C [31]: 63.2%
viability, T/C [32]: 61.9%
viability, T/C [33]: 58.8%
viability, T/C [34]: 57.3%
viability, T/C [35]: 62.4%
viability, T/C [36]: 39.5%

C[C@@H](NC(=O)c1ncnc(N)c1Cl)c1ncc(C(=O)Nc2cc(C(F)(F)F)c(Cl)cn2)s1 + COc1c(OCCCN2CCOCC2)ccc2c3n(c(=NC(=O)c4cnc(N)nc4)nc12)CCN3
IC50 (second compound 0.00316 µM): > 10 µM
IC50 (second compound 0.01 µM): > 10 µM
IC50 (second compound 0.0316 µM): > 10 µM
IC50 (second compound 0.1 µM): 7.87 µM
IC50 (second compound 0.316 µM): 9.5 µM
IC50 (second compound 1 µM): 3.76 µM
viability, T/C [1]: 82.4%
viability, T/C [2]: 88%
viability, T/C [3]: 94.8%
viability, T/C [4]: 101%
viability, T/C [5]: 94.5%
viability, T/C [6]: 79.3%
viability, T/C [7]: 88%
viability, T/C [8]: 86.8%
viability, T/C [9]: 90.4%
viability, T/C [10]: 85.9%
viability, T/C [11]: 101%
viability, T/C [12]: 67.3%
viability, T/C [13]: 78.6%
viability, T/C [14]: 83.7%
viability, T/C [15]: 79.7%
viability, T/C [16]: 78.1%
viability, T/C [17]: 80.8%
viability, T/C [18]: 61%
viability, T/C [19]: 74.1%
viability, T/C [20]: 74.1%
viability, T/C [21]: 83.5%
viability, T/C [22]: 69.3%
viability, T/C [23]: 80.1%
viability, T/C [24]: 43.3%
viability, T/C [25]: 62.5%
viability, T/C [26]: 61.8%
viability, T/C [27]: 53.9%
viability, T/C [28]: 67.4%
viability, T/C [29]: 69%
viability, T/C [30]: 32.6%
viability, T/C [31]: 61.9%
viability, T/C [32]: 58.6%
viability, T/C [33]: 74.4%
viability, T/C [34]: 58.9%
viability, T/C [35]: 54.9%
viability, T/C [36]: 23.8%

Cn1ncnc1[C@H]1c2n[nH]c(=O)c3cc(F)cc(c23)N[C@@H]1c1ccc(F)cc1 + COc1c(OCCCN2CCOCC2)ccc2c3n(c(=NC(=O)c4cnc(N)nc4)nc12)CCN3
IC50 (second compound 0.00316 µM): > 0.1 µM
IC50 (second compound 0.01 µM): > 0.1 µM
IC50 (second compound 0.0316 µM): > 0.1 µM
IC50 (second compound 0.1 µM): > 0.1 µM
IC50 (second compound 0.316 µM): > 0.1 µM
IC50 (second compound 1 µM): > 0.1 µM
viability, T/C (second compound 0.00316 µM, first compound 0.000316 µM): 91.6%
viability, T/C (second compound 0.00316 µM, first compound 0.001 µM): 99%
viability, T/C (second compound 0.00316 µM, first compound 0.00316 µM): 115%
viability, T/C (second compound 0.00316 µM, first compound 0.01 µM): 99.5%
viability, T/C [1]: 116%
viability, T/C [2]: 109%
viability, T/C (second compound 0.01 µM, first compound 0.000316 µM): 95.5%
viability, T/C (second compound 0.01 µM, first compound 0.001 µM): 104%
viability, T/C (second compound 0.01 µM, first compound 0.00316 µM): 108%
viability, T/C (second compound 0.01 µM, first compound 0.01 µM): 99.4%
viability, T/C [7]: 116%
viability, T/C [8]: 94.7%
viability, T/C (second compound 0.0316 µM, first compound 0.000316 µM): 93.1%
viability, T/C (second compound 0.0316 µM, first compound 0.001 µM): 98%
viability, T/C (second compound 0.0316 µM, first compound 0.00316 µM): 106%
viability, T/C (second compound 0.0316 µM, first compound 0.01 µM): 99.2%
viability, T/C [13]: 94.2%
viability, T/C [14]: 93.3%
viability, T/C (second compound 0.1 µM, first compound 0.000316 µM): 85.3%
viability, T/C (second compound 0.1 µM, first compound 0.001 µM): 99.1%
viability, T/C (second compound 0.1 µM, first compound 0.00316 µM): 94.8%
viability, T/C (second compound 0.1 µM, first compound 0.01 µM): 75.1%
viability, T/C [19]: 85%
viability, T/C [20]: 75.8%
viability, T/C (second compound 0.316 µM, first compound 0.000316 µM): 82.4%
viability, T/C (second compound 0.316 µM, first compound 0.001 µM): 73.1%
viability, T/C (second compound 0.316 µM, first compound 0.00316 µM): 71.7%
viability, T/C (second compound 0.316 µM, first compound 0.01 µM): 86.1%
viability, T/C [25]: 67.8%
viability, T/C [26]: 75.7%
viability, T/C (second compound 1 µM, first compound 0.000316 µM): 65.4%
viability, T/C (second compound 1 µM, first compound 0.001 µM): 65%
viability, T/C (second compound 1 µM, first compound 0.00316 µM): 63.5%
viability, T/C (second compound 1 µM, first compound 0.01 µM): 70.8%
viability, T/C [31]: 70.8%
viability, T/C [32]: 55.4%

From PubChem BioAssay AID1963980 (Molecular Pharmacology Branch, DTP, NCI, 2024)
